These results are taken from patent US6593335B1, “Potassium channel openers” (Abbott Laboratories, priority 1997, dated 2003).

The assay has as its target potassium channels (Sus scrofa, UniProt F1SR11). Nature of the assay: Functional potassium channel opening activity in isolated Landrace pig bladder strips (field-stimulated twitch). Conditions: for Landrace Pig Bladder Index: ED50 for P1075 divided by ED50 for the test agonist, averaged over tissues; for Landrace Pig Bladder pD2: negative logarithm of ED50; for Emax: pig. As to the method:
The entire bladder was removed and ed into Krebs Ringer bicarbonate solution (composition, mM: NaCl,; dextrose, 1; KCl, 4.7; […] Propranolol (0.004 ed in all of the assays to block […]. The trigonal and dome […]. Strips 3-5 mm wide and 20 mm long were prepared from the cut in a circular fashion. The mucosal layer was removed. One end ationary glass rod and the other to a Grass FT03 transducer at a basal am. Two parallel platinum electrodes were included in the stationary ide field stimulation of 0.05Hz, 0.5 milli-seconds at 20 volts. […] Tissues were allowed to equilibrate for at least 60 minutes and primed with 80 mM KCl. A control concentration response curve (cumulative) was generated for each tissue using the potassium channel opener […] as the control agonist. […] After a 60 minute rinsing period, a concentration response curve (cumulative) was generated for the test agonist in the same fashion as that used for the control agonist […]. The maximal efficacy of each compound (expressed as % relative to […]) is reported. […] J. Physiol. 235, E97 (1980)), and agonist potencies were expressed as pD2 (the negative logarithm). Agonist potencies were also expressed as an index relative to […]. The index was calculated by dividing the ED50 for […] by the ED50 for the test agonist in a given tissue. Each tissue was used for only one test agonist, and the indices obtained from each tissue were averaged to provide an average index of potency.

The mark [1] stands for this setting: maximal efficacy relative to P1075, field stimulation 0.05Hz, 0.5 milli-seconds at 20 volts.

The structures appear in SMILES notation.

In the case of `O=C1CCCC2=C1C(c1cc(Br)ccc1O)C1=C(CCS1(=O)=O)N2` (stereo not drawn) [Example 108, 9-(5-bromo-2-hydroxyphenyl)-2,3,5,6,7,9-hexahydrothieno[3,2-b]quinolin-8(4H)-one 1,1-dioxide], the “Landrace Pig Bladder Index” value is on record as 0.075 and the “Landrace Pig Bladder pD2” value is listed as 4.7. Under setting [1], this compound had an Emax of 98%.
For `O=C1CCCC2=C1C(c1ccc(Br)c(Br)c1)C1=C(CCS1(=O)=O)N2` (single isomer, unassigned) [Example 147, 9-(3.4-dibromophenyl)-2,3,5,6,7,,9-hexahydrothieno[3.2-b]quinolin-8(4H)-one, 1,1-dioxide], the “Landrace Pig Bladder Index” value is given as 0.24 and the “Landrace Pig Bladder pD2” value was determined as 6.2. This compound also returned an Emax under setting [1] of 99%.
For `O=C1CCCC2=C1C(c1ccc(Cl)c([N+](=O)[O-])c1)C1=C(CCS1(=O)=O)N2` (single isomer, unassigned; (-)) [Example 100, (−)-9-(4-chloro-3-nitrophenyl)-2,3,5,6,7,9-hexahydrothieno[3,2-b]quinolin-8(4H)-one, 1,1-dioxide], the “Landrace Pig Bladder Index” value came out at 0.17 and the “Landrace Pig Bladder pD2” value came to 6.4. For the same compound, the “Landrace Pig Bladder Efficacy (% P1075)” value under setting [1] amounted to 100 % P1075.
On to `O=S1(=O)CCC2=C1C(c1ccc(F)c(Br)c1)C1=C(CCS1(=O)=O)N2` [Example 53, 8-(3-bromo-4-fluorophenyl)-2,3,4,5,6,8-hexahydrodithieno [3.2-b:2′,3′-e]pyridine, 1,1,7,7-tetraoxide], for which the “Landrace Pig Bladder Index” value is 0.17 and the “Landrace Pig Bladder pD2” value turned out to be 6.6. In addition, under setting [1], the Emax stood at 100%.
Turning to `CC1=C(S(C)(=O)=O)C(c2cc(F)c(F)c(F)c2)C2=C(CCCC2=O)N1` (stereo not drawn) [Example 22, 4-(3,4,5-trifluorophenyl)-4,6,7,8-tetrahydro-2-methyl-3-(methylsulfonyl)-5(1H)-quinolinone], the “Landrace Pig Bladder Index” value was found to be 0.0069 and the “Landrace Pig Bladder pD2” value was 4.5. This compound returned an Emax under setting [1] of 77%.
Regarding `N#Cc1cccc(C2C3=C(CCCC3=O)NC3=C2S(=O)(=O)CC3)c1` (stereo not drawn) [Example 30, 9-(3-cyanophenyl)-2,3,5,6,7,9-hexahydrothieno [3.2-b]quinolin-8(4H)-one, 1,1-dioxide], the “Landrace Pig Bladder Index” value was found to be 0.018 and the “Landrace Pig Bladder pD2” value was found to be 5.5. This compound had an Emax under setting [1] of 99%.
The like results for `O=C1CCC2=C1C(c1ccc(Cl)c([N+](=O)[O-])c1)C1=C(CCS1(=O)=O)N2` (stereo not drawn) [Example 44, 8-(4-chloro-3-nitrophenyl)-2,3,4,5,6,8-hexahydro-7H-cyclopenta[b]thieno[2,3-e]pyridin-7-one 1,1-dioxide] were, in that order, 0.15, 6.2 and 99%.
`O=C1CCCC2=C1C(c1ccc(Cl)c(Cl)c1)C1=C(CCCS1(=O)=O)N2` (stereo not drawn) [Example 2]: the “Landrace Pig Bladder Index” value was found to be 0.15 and the “Landrace Pig Bladder pD2” value is reported as 6.2. Under setting [1], this compound yielded an Emax of 96%.
The like results for `O=C1CCCC2=C1C(c1cccc(Cl)c1)C1=C(CCCS1(=O)=O)N2` (stereo not drawn) [Example 16, 10-(3-chlorophenyl)-3,4,6,7,8,10-hexahydro-2H-thiopyrano [3.2-b]quinolin-9(5H)-one, 1,1-dioxide] were, in that order, 0.011, 5.0 and 100%.
In the case of `O=C1CCCC2=C1[C@H](c1ccc(F)c(Br)c1)C1=C(CCS1(=O)=O)N2` [Example 84, (−)-(9S)-9-(3-bromo-4-fluorophenyl)-2,3,5,6,7,9-hexahydrothieno [3,2-b]quinolin-8(4H)-one, 1,1-dioxide], the “Landrace Pig Bladder Index” value stood at 0.69 and the “Landrace Pig Bladder pD2” value was found to be 6.8. Besides, under setting [1], the maximum response (Emax) was determined as 100%.
In the same order, the values of `N#Cc1cccc(C2C3=C(CCCC3=O)NC3=C2S(=O)(=O)CC3)c1` (single isomer, unassigned; (-)) [Example 114, (−)-9-(3-cyanophenyl)-2,3,5,6,7,9-hexahydrothieno[3,2-b]quinolin-8(4H)-one, 1,1-dioxide] are 0.014, 4.9 and 97%.
In the same order, the values of `O=C1CCCC2=C1C(c1ccc(Cl)c([N+](=O)[O-])c1)C1=C(CCS1(=O)=O)N2` (single isomer, unassigned; (+)) [Example 99, (+)-9-(4-chloro-3-nitrophenyl)-2,3,5,6,7,9-hexahydrothieno[3.2-b]guinolin-8(4H)-one, 1,1-dioxide] are 0.18, 6.2 and 100%.
In the same order, the values of `O=C1CCC2=C1C(c1ccc(F)c(Br)c1)C1=C(CCS1(=O)=O)N2` (single isomer, unassigned; (-)) [Example 86] are 0.069, 6.5 and 100%.
`O=C1CCC2=C1C(c1cccc([N+](=O)[O-])c1)C1=C(CCS1(=O)=O)N2` (stereo not drawn) [Example 58, 2,3,4,5,6,8-hexahydro-8-(3-nitrophenyl)-7H-cyclopenta[b]thieno [2.3-e]pyridin-7-one, 1,1-dioxide]: the “Landrace Pig Bladder Index” value amounted to 0.026 and the “Landrace Pig Bladder pD2” value was determined as 5.3. The compound further displayed an Emax under setting [1] of 94%.
In the same order, the values of `Cc1ccc(C2C3=C(CCCC3=O)NC3=C2S(=O)(=O)CC3)cc1[N+](=O)[O-]` (single isomer, unassigned) [Example 126, 9-(4-methyl-3-nitrophenyl)-2,3 5,6,7,9-hexahydro[3. 2-b]guinolin-8(4H)-one, 1,1-dioxide] are 0.20, 6.3 and 99%.
On to `N#Cc1cccc(C2C3=C(CCC3=O)NC3=C2S(=O)(=O)CC3)c1` (single isomer, unassigned; (+)) [Example 164], for which the “Landrace Pig Bladder Index” value turned out to be 0.0071 and the “Landrace Pig Bladder pD2” value amounted to 5.0. The maximal effect (Emax) under setting [1] came out at 94%.
In the same order, the values of `O=C1CCC2=C1C(c1csc([N+](=O)[O-])c1)C1=C(CCS1(=O)=O)N2` (stereo not drawn) [Example 69] are 0.15, 6.2 and 98%.
In the same order, the values of `CC(=O)C1=C(C)NC2=C(C1c1ccc(Cl)c([N+](=O)[O-])c1)S(=O)(=O)CCC2` (stereo not drawn) [Example 36] are 0.040, 5.5 and 97%.
In the case of `O=C1CCCC2=C1C(c1ccc(Cl)c([N+](=O)[O-])c1)C1=C(CCS1(=O)=O)N2` (stereo not drawn) [Example 34, 9-(4-chloro-3-nitrophenyl)-2,3,5,6,7,9-hexahydrothieno [3,2-b]quinolin-8(4H)-one, 1,1-dioxide], the “Landrace Pig Bladder Index” value turned out to be 0.32 and the “Landrace Pig Bladder pD2” value was found to be 6.8. The Emax under setting [1] came to 100%.
The like results for `O=[N+]([O-])c1cc(C2C3=C(CCS3(=O)=O)NC3=C2S(=O)(=O)CC3)ccc1Cl` [Example 51, 8-(4-chloro-3-nitrophenyl)-2,3,4,5,6,8-hexahydrodithieno [3,2-b:2′,3′-e]pyridine, 1,1 7,7-tetraoxide] were, in that order, 0.021, 5.4 and 99%.
Regarding `O=C1CCC2=C1C(c1ccc(Cl)c(Cl)c1)C1=C(CCS1(=O)=O)N2` (single isomer, unassigned) [Example 146], the “Landrace Pig Bladder Index” value came to 0.40 and the “Landrace Pig Bladder pD2” value is listed as 6.7. Further, under setting [1], the Emax is 100%.
In the same order, the values of `O=C1CCCC2=C1C(c1ccc(F)c(Br)c1)C1=C(CCS1(=O)=O)N2` (stereo not drawn) [Example 43, 9-(3-bromo-4-fluoronhenyl)-2,3,5,6,7,9-hexahydrothieno [3,2-b]quinolin-8(4H)-one, 1,1-dioxide] are 0.41, 6.6 and 98%.
In the same order, the values of `O=C1CCCC2=C1[C@@H](c1ccc(F)c(Br)c1)C1=C(CCS1(=O)=O)N2` [Example 83, (+)-(9R)-9-(3-bromo-4-fluorophenyl)-2,3,5,6,7,9-hexahydrothieno [3.2-b]guinolin-8(4H)-one, 1,1-dioxide] are 0.57, 7.0 and 100%.
Take `O=C1CCCC2=C1C(c1ccc(F)c(I)c1)C1=C(CCS1(=O)=O)N2` (single isomer, unassigned) [Example 149, 9-(4-fluoro-3-iodophenyl)-2,3,5,6,7,9-hexahydrothieno[3 2-b]quinolin-8(4H)-one, 1,1-dioxide]: the “Landrace Pig Bladder Index” value was 1.2 and the “Landrace Pig Bladder pD2” value is listed as 6.6. For the same compound, the maximal response (Emax) under setting [1] is 80%.
In the same order, the values of `O=C1CCC2=C1C(c1ccc(F)c(Br)c1)C1=C(CCCS1(=O)=O)N2` (single isomer, unassigned; (+)) [Example 91] are 0.0034, 4.6 and 95%.
